Reference: US20170008888A1 (KYORIN PHARMACEUTICAL CO., LTD., priority 2014, published 2017)
Marks after values point to notes of the source that are not given here. Each block holds one compound with its values, some of them ahead of it.

What was measured:
MV-4-11 cells = assay: MV-4-11 proliferation EC50 assay (CellTiter-Glo); assay type: cell-based; conditions: Homo sapiens, MV4-11, 48 h, read-out: MV-4-11 proliferation EC50, ave. ± S.D.
Experimental: Human biphenotypic B myelomonocytic leukemia MV-4-11 cells (ATCC, Manassas, Va.) were treated with test compounds at 2e5 cells/ml in IMDM medium containing 10% (v/v) FBS (Life Technologies, Grand Island, N.Y.) and 1×Pen/Strep Amphotericin B (Lonza, Allendale, N.J.). Compounds were tested at 25 μM down by ⅓ in a 9 point serial dilution series. Cells were incubated for 48 h at 37° C. in a humidified atmosphere at 5% CO2. MV-4-11 cell proliferation was then indirectly determined via cellular ATP content using the CellTiter-Glo® Luminescent Cell Viability Assay (Promega, Madison, Wis.) as per the manufacturer's instructions. Briefly, experimental plates were equilibrated at room temperature for 30 minutes. An equal volume of CellTiter-Glo® reagent was added to each well and incubated for 15 minutes at room temperature. Luminescent signal was read using the Wallac 1420 Victor^2 multilabel microplate reader (Perkin Elmer, Waltham, Mass.). EC50 values were determined using GraphPad Prism software v5.04.

[1] = system: DNFB-induced ear inflammation mouse model; assay: DNFB-induced ear inflammation (contact hypersensitivity) mouse model: ear weight; assay type: in vivo, mouse (Balb/c); conditions: 3 mg/kg PO, QD on Day 5 (elicitation)
Experimental: (§1) In vivo T-cell mediated immune response was examined in a mouse model of CHS using the hapten dinitrofluorobenzene (DNFB) as the induction agent. Method for sensitization and elicitation of DNFB-induced CHS was modified from Xu et al. J. Exp. Med. 1996. 183:1001-1012. On Days 0 and 1 (sensitization), 20 μL of 0.5% v/v DNFB in acetone:olive oil (4:1) was applied to each hindpaw of 8 week old male mice (Balb/c, Charles River Laboratories; 10 mice per group unless otherwise noted). On Day 5 (elicitation) 10 μL of 0.2% v/v DNFB in acetone: olive oil (4:1) was applied to the dorsal surface of the right ear of each animal; 10 μL of acetone: olive oil (4:1) was applied to the dorsal surface of the left ear as control. Treatments were administered by group as indicated in the table below; on days when DNFB was used, the QD and the morning dose of BID as appropriate were administered 30 minutes-1 hr. prior to DNFB application. […] Approximately 24 hours after elicitation (Day 6), a 7 mm tissue punch from the central portion of both ears was collected and wet weights measured. The primary functional assessment was the difference in wet weights of the right (DNFB) vs. left (vehicle) ears compared to the vehicle treatment (Vehicle1-S) as an indicator of inflammation (Table 17). Ear tissue punches were flash frozen, stored at −70° C. and analyzed for cytokines (see below). Body weights of the mice were measured at baseline and at end of study, and there were no significant changes in weight in any treatment group during the study (data not shown).

[2] = system: DNFB-induced ear inflammation mouse model; assay: DNFB-induced ear inflammation mouse model: cytokine concentrations in ear tissue; assay type: in vivo, mouse (Balb/c); conditions: Dex 3 mg/kg PO, regimen E
Experimental: as §1, with “Method for sensitization and elicitation of DNFB-induced CHS was modified from Xu et al. J. Exp. Med. 1996. 183:1001-1012.” left out, “below).” for “below). Body weights of the mice were measured at baseline and at end of study, and there were no significant changes in weight in any treatment group during the study (data not shown).”
Cytokine concentrations after DNFB induction and treatment were analyzed in the weighed and flash frozen tissues of the right (DNFB) and left (control) 7 mm ear punches. The ear tissues were stored at −70° C. until prepared for analysis as follows. Left or right ear tissues from the same treatment group were pooled and crushed with mortar and pestle under liquid nitrogen. Tissue representing 7-8 ear punches by weight was homogenized in Buffer A (50 mM HEPES pH 7.4, 100 mM NaCl) containing 1 tablet EDTA-free Protease Inhibitor (Thermo Fisher Scientific, Rockford, Ill.) per 10 mL, 1× Phosphatase Inhibitor Cocktail II (AG Scientific, San Diego, Calif.), and 1 mM PMSF (Sigma, St. Louis, Mo.). Homogenization was performed in Lysing Matrix D tubes (MP Biomedicals, Solon, Ohio), using the FastPrep-24 instrument (MP Biomedicals) at a speed setting of 6 for 4 cycles of 30 seconds, with cooling on ice in between cycles. The tubes were then centrifuged at 1,000×g for 10 min at 4° C. Supernatant was collected and briefly sonicated using the Microson probe sonicator at setting 3 (Misonix, Farmingdale, N.Y.) before centrifuging again at 10,000×g for 10 min at 4° C. The supernatant was ultracentrifuged at 100,000×g for 1 h at 4° C. in the Optima Max-E (Beckman Coulter, Indianapolis, Ind.) to separate soluble and membrane protein fractions. The soluble (supernatant) fraction was collected and protein concentrations determined using the Dc protein kit (Bio-Rad, Hercules, Calif.). Soluble ear proteins were analyzed in triplicate for cytokine response at a final protein concentration of 4 mg/ml using the Bio-Plex Pro Mouse Cytokine 23-Plex panel (Bio-Rad) as per manufacturer's protocols. Magnetic beads were read on the Bio-Plex MAGPIX multiplex reader instrument using the accompanying xPONENT 4.2 acquisition software (Bio-Rad Laboratories, Hercules, Calif.). Data were analyzed via the Bio-Plex Manager software v6.1 (Bio-Rad Laboratories). Response was calculated as a percentage of the cytokine concentrations measured in the right (DNFB) ears of vehicle 1 dosed (S regimen, i.e. dosed Day 0-5) mice (Table 18).

[3] = system: Imiquimod-induced psoriasis mouse model; assay: Imiquimod (IMQ)-induced acute model of psoriasis in mouse: skin thickness, erythema, scaling; assay type: in vivo, mouse (Balb/c)
Experimental: Material and methods for the IMQ study were adapted from van der Fits et al. J Immunol., 2009, 182: 5836-5845. Eight week old male Balb/c mice (Harlan) received a daily topical dose of 62.5 mg 5% IMQ cream (Aldara™, Medicis) equivalent to 3.125 mg IMQ, on the shaved back (approximately 2×3.5 cm patch) and dorsal surface of the right ear for 6 consecutive days. Sham control mice were treated similarly with control cream (Hydrous Emulsified Base, HEB, Cream, Fagron). Treatments were administered by group as indicated in Table 1 below prior to daily application of IMQ (QD and morning dose of BID regimens), n=10 for all groups. […] Body weights and scoring of induced clinical disease were performed after dosing (Days 1-7) but prior to IMQ application (Days 1-6) on Days 1 (baseline), 3, 4, 6, 8. Mice were sacrificed on Day 8 and treated back skin tissue collected and divided for fixation for histopathology (a 12 mm punch in mid-back) the remainder flash frozen; right (IMQ) and left (control) ears, spleen (after wet weight) and lung were also individually collected and flash frozen, and stored at −70° C. for subsequent biochemical analyses. Statistics were performed using one-way ANOVA with Dunnett's post-hoc test comparing treated groups to the vehicle group, using InStat software (GraphPad, La Jolla, Calif.).
The severity of clinical disease was assessed by
1) skin thickness dial gauge micrometer measurements (duplicate) of the ears and the dorsal skin at the midline of the back (equal to double true measure of dorsal skin thickness)
2) erythema and scaling, independently scored on a scale from 0-4: 0=none, 1=slight, 2=moderate, 3=marked, 4=very marked with intermediate increments of 0.5 allowed.
Clinical disease assessments included erythema, scaling, skin thickness and cumulative disease severity scores and the change in skin thickness of the ears and dorsal back skin over time compared to baseline measurements (Tables 19 and 20). Body weights of the mice were measured at baseline and at end of study, and there were no significant changes in weight in any treatment group during the study (data not shown).

[4] = Day 1 (baseline), Dexamethasone 3 mg/kg PO
[5] = Day 3, Dexamethasone 3 mg/kg PO
[6] = Day 4, Dexamethasone 3 mg/kg PO
[7] = Day 6, Dexamethasone 3 mg/kg PO
[8] = Day 8, Dexamethasone 3 mg/kg PO

EC50 (MV-4-11 cells): 1120 nM
Compound: CN1C(=O)c2ccccc2N(C)c2nc(Nc3ccc(N4CCC(O)CC4)cn3)ncc21 [Compound IV-5 in WO 2010/080712]

Compound: C[C@@H]1C[C@H]2[C@@H]3CCC4=CC(=O)C=C[C@]4(C)[C@@]3(F)[C@@H](O)C[C@]2(C)[C@@]1(O)C(=O)CO [Dexamethasone, reference compound]
% Reduction Weight Increase Vs. Vehicle 1 Weight Increase [1]: −60.0%
IFN-γ: Mean % Cytokine Concentration in DNFB Treated Right Ears versus Vehicle 1-Dosed (S) Mice [2]: 74%
IL-1α: Mean % Cytokine Concentration in DNFB Treated Right Ears versus Vehicle 1-Dosed (S) Mice [2]: 189%
IL-1β: Mean % Cytokine Concentration in DNFB Treated Right Ears versus Vehicle 1-Dosed (S) Mice [2]: 53%
IL-3: Mean % Cytokine Concentration in DNFB Treated Right Ears versus Vehicle 1-Dosed (S) Mice [2]: 76%
IL-5: Mean % Cytokine Concentration in DNFB Treated Right Ears versus Vehicle 1-Dosed (S) Mice [2]: 58%
IL-6: Mean % Cytokine Concentration in DNFB Treated Right Ears versus Vehicle 1-Dosed (S) Mice [2]: 36%
IL-12 (p40): Mean % Cytokine Concentration in DNFB Treated Right Ears versus Vehicle 1-Dosed (S) Mice [2]: 59%
IL-13: Mean % Cytokine Concentration in DNFB Treated Right Ears versus Vehicle 1-Dosed (S) Mice [2]: 81%
IL-17A: Mean % Cytokine Concentration in DNFB Treated Right Ears versus Vehicle 1-Dosed (S) Mice [2]: 63%
KC: Mean % Cytokine Concentration in DNFB Treated Right Ears versus Vehicle 1-Dosed (S) Mice [2]: 29%
MCP-1: Mean % Cytokine Concentration in DNFB Treated Right Ears versus Vehicle 1-Dosed (S) Mice [2]: 41%
MIP-1α: Mean % Cytokine Concentration in DNFB Treated Right Ears versus Vehicle 1-Dosed (S) Mice [2]: 53%
MIP-1β: Mean % Cytokine Concentration in DNFB Treated Right Ears versus Vehicle 1-Dosed (S) Mice [2]: 39%
RANTES: Mean % Cytokine Concentration in DNFB Treated Right Ears versus Vehicle 1-Dosed (S) Mice [2]: 42%
TNF-α: Mean % Cytokine Concentration in DNFB Treated Right Ears versus Vehicle 1-Dosed (S) Mice [2]: 74%
Clinical Score Erythema (0-4), AVG Score [3, 4]: 0
Clinical Score Scaling (0-4), AVG Score [3, 4]: 0
% Mean DORSAL BACK THICKNESS versus day 1, AVG [3, 5]: 3.08%
% Mean LEFT EAR THICKNESS [Control] versus day 1, AVG [3, 5]: −9.64%
% Mean RIGHT EAR THICKNESS [IMQ] versus day 1, AVG [3, 5]: −5.32%
Clinical Score Erythema (0-4), AVG Score [3, 5]: 0.05
Clinical Score Scaling (0-4), AVG Score [3, 5]: 0
% Mean DORSAL BACK THICKNESS versus day 1, AVG [3, 6]: 13.71%
% Mean LEFT EAR THICKNESS [Control] versus day 1, AVG [3, 6]: −10.38%
% Mean RIGHT EAR THICKNESS [IMQ] versus day 1, AVG [3, 6]: −2.08%
Clinical Score Erythema (0-4), AVG Score [3, 6]: 0.65
Clinical Score Scaling (0-4), AVG Score [3, 6]: 0.2
% Mean DORSAL BACK THICKNESS versus day 1, AVG [3, 7]: 13.04** %
% Mean LEFT EAR THICKNESS [Control] versus day 1, AVG [3, 7]: −9.61%
% Mean RIGHT EAR THICKNESS [IMQ] versus day 1, AVG [3, 7]: 10.54** %
Clinical Score Erythema (0-4), AVG Score [3, 7]: 0.45
Clinical Score Scaling (0-4), AVG Score [3, 7]: 0.5
% Mean DORSAL BACK THICKNESS versus day 1, AVG [3, 8]: 14.32** %
% Mean LEFT EAR THICKNESS [Control] versus day 1, AVG [3, 8]: −14.05%
% Mean RIGHT EAR THICKNESS [IMQ] versus day 1, AVG [3, 8]: 10.40** %
Clinical Score Erythema (0-4), AVG Score [3, 8]: 0.45
Clinical Score Scaling (0-4), AVG Score [3, 8]: 0.35
